pIC50: −log10 of the molar value.
Tested on: IL-1β release from THP-1 cells
Experiment: IL-1β release assay in differentiated THP-1 cells stimulated with BzATP (ELISA)
Type: cell-based
Settings: Homo sapiens; for inhibition at 0.3 µM: 0.3 uM compound, BzATP 250 uM, read-out: IL-1β % Inhib. @ 0.3 uM.; for pIC50: released IL-1β as in Example 9, four parameter logistic fit, read-out: IL-Iβ IC50
Method: THP-1 cells (ATCC Cat #285-IF-100) are plated in 96 well plates at a concentration of 200,000 cells per well and allowed to differentiate in RPMI-1640 media (ATCC Cat #30-2001) containing 10% FBS, 100 IU/mL penicillin, 100 ug/mL streptomycin, 100 ng/mL LPS and 100 ng/mL IFN-γ for 16 hours. Following differentiation, the cells are treated for an additional 2 hours in RPMI-1640 media containing 100 IU/mL penicillin, 100 ug/mL streptomycin and fresh LPS at 100 ng/mL. The cells are then pretreated for 30 minutes with the compound of interest at the appropriate concentration in RPMI media containing 100 IU/mL penicillin, 100 ug/mL streptomycin. Following the pretreatment 2′,3′-O-(4-benzoylbenzoyl)-adenosine 5′-triphosphate (Sigma Aldrich Cat # B6396) is added to a final concentration of 250 uM and the cells are incubated for an additional 45 minutes. 30 uL of cell supernatant is then collected and IL-113 levels determined via ELISA (R&D systems Cat. # HSLB50) according to manufacturer's recommendations using the Tecan Safire plate reader. Background adjusted IL-1β levels of drug treated and non-treated cells are used to calculate the percent inhibition. […]
The compounds set forth in Table 1 were tested for activity in a cellular model as described herein. Specifically, cells were pretreated with differing amounts of the compound under test and released IL-1β determined as in Example 9, above. Measurements were made and IC50 values, presented in Table 2, below, were determined by fitting the data to a four parameter logistic equation using GraphPad Prism software (GraphPad Software, Inc). The equation may be expressed by the following formula: Y=Bottom+(Top−Bottom)/(1+10^((LogEC50−X)*HillSlope)) Where X is the logarithm of concentration, Y is the response and Y starts at Bottom and goes to Top with a sigmoid shape.

pIC50 | SMILES | inhibition at 0.3 µM [%]
6.80 | O=C(NCc1ccc(F)c(C(F)(F)F)c1)c1cccc2c(=O)n(C3CC3)ccc12 [Compound 2075] | > 76
8.16 | C[C@H](CO)n1ccc2c(C(=O)NCC3CCCCCC3)cccc2c1=O [Compound 2069, 2-((R)-2-Hydroxy-1-methyl-ethyl)-1-oxo-1,2-dihydro-isoquinoline-5-carboxylic acid cycloheptylmethyl-amide] | > 76
7.42 | C[C@H](C(N)=O)n1ccc2c(C(=O)NCc3ccc(Cl)c(Cl)c3)cccc2c1=O [Compound 2060] | > 76
6.84 | CC1(C)CCCC(O)(CNC(=O)c2cccc3c(=O)n(CC(O)CO)ccc23)C1 (stereo not drawn) [Compound 2042] | 51 to 75
6.18 | CC(C(N)=O)n1ccc2c(C(=O)NCC3CCCCCC3)cccc2c1=O (stereo not drawn) [Compound 2050] | 0 to 25
6.93 | O=C(NCc1ccc(C(F)(F)F)c(F)c1)c1cccc2c(=O)n(C3CC3)ccc12 [Compound 2076] | > 76
7.58 | C[C@H](C(N)=O)n1ccc2c(C(=O)NCC3(O)CCCCCC3)cccc2c1=O [Compound 2057] | > 76
7.94 | O=C(NCC1CCCCCC1)c1cccc2c(=O)n(Cc3ccc4c(c3)OCCO4)ccc12 [Compound 2036] | > 76
6.91 | CC(C(N)=O)n1ccc2c(C(=O)NCC3CCCCC3)cccc2c1=O (stereo not drawn) [Compound 2049] | > 76
6.30 | C[C@@H](C(N)=O)n1ccc2c(C(=O)NCC3(O)CCCCCC3)cccc2c1=O [Compound 2056] | 26 to 50
< 6.00 | C[C@@H](NC(=O)c1cccc2c(=O)n([C@@H](C)C(N)=O)ccc12)c1ccc(Cl)cc1 [Compound 2067] | 0 to 25
6.97 | O=C(NCc1ccc(Cl)c(F)c1)c1cccc2c(=O)n(C3CC3)ccc12 [Compound 2074] | > 76
6.16 | O=C(NCC1CCCCC1)c1cccc2c(=O)n(CCO)ccc12 [Compound 2052] | 0 to 25

Further lines, the compound ahead of its results:

SMILES | pIC50 | inhibition at 0.3 µM [%]
O=C(NCC1CCCCC1)c1ncnc2c1CCN(Cc1ccccc1Cl)C2 [Compound 2008] | – | 0 to 25
O=C(NCC1CCCCC1)c1ncnc2c1CCN(Cc1ccccc1)C2 [Compound 2004] | – | 0 to 25
COc1ccc(CN2CCc3c(ncnc3C(=O)NCC3CCCCC3)C2)cc1 [Compound 2012] | – | 0 to 25
CC(=O)Nc1ccc(CN2CCc3c(ncnc3C(=O)NCC3CCCCC3)C2)cc1 [Compound 2015] | – | 0 to 25
O=C(NCC1CCCCC1)c1ncnc2c1CCNC2 [Compound 2002, 5,6,7,8-Tetrahydro-pyrido[3,4-d]pyrimidine-4-carboxylic acid cyclohexylmethyl-amide] | – | 0 to 25
O=C(NCC1CCCCC1)c1ncnc2c1CCN(Cc1cccc(Cl)c1)C2 [Compound 2011] | – | 0 to 25
Cc1ccc(C2(CNC(=O)c3ncnc4c3CCN(Cc3ccccc3)C4)CCCCC2)cc1 [Compound 2018] | – | 0 to 25
Cc1ccc(CN2CCc3c(ncnc3C(=O)NCC3CCCCC3)C2)cc1 [Compound 2013] | – | 0 to 25
O=C(NCC1(O)CCCCCC1)c1ncnc2c1CCN(Cc1ccccc1)C2 [Compound 2016] | – | 0 to 25
O=C(NCCc1ccccc1)c1ncnc2c1CCNC2 [Compound 2003] | – | 0 to 25
O=C(NCC1CCCCCC1)c1cccc2c1CCN(C(CO)CO)C2=O [Compound 2037] | 6.86 | 51 to 75
O=C(NCC1CCCCCC1)c1cccc2c(=O)n(C3CC3)ccc12 [Compound 2070, 2-Cyclopropyl-1-oxo-1,2-dihydro-isoquinoline-5-carboxylic acid cycloheptylmethyl-amide] | 7.78 | > 76
Cc1ccc2c(c1C(=O)NCc1ccc(C(F)(F)F)c(F)c1)CCN(C(=O)C1CC1)C2 [Compound 2080] | 6.45 | 26 to 50
